By IC50 is commonly meant the concentration that gives 50% inhibition.

The values that follow come from patent publication US9163011B2, “Oxazine derivatives and their use in the treatment of disease” (NOVARTIS AG, priority 2011, dated 2015).

Assay [1] is described as follows: Test 4: Inhibition of Cellular Release of Amyloid Peptide 1-40. Particulars: Cricetulus griseus; CHO cells with human APP, 24 hours with compound; read-out: Test 4 Amyloid-β1-40 release IC50. It counts as cell-based, Chinese hamster. How it is done:
The cells are plated at a density of 8000 cells/well into 96-well microtiter plates and cultivated for 24 hours in DMEM cell culture medium containing 10% FCS. The test compound is added to the cells at various concentrations, and the cells are cultivated for 24 hours in the presence of the test compound. […] The potency of the compound is calculated from the percentage of inhibition of amyloid peptide release as a function of the test compound concentration.

In another assay the target is Human BACE-1 (Homo sapiens (Human), UniProt P56817). As to the kind of experiment: Test 1: Inhibition of Human BACE-1. The format is biochemical. Particulars: recombinant BACE-1, pH 4.5, 1 hour preincubation. How it is done:
Test 1: Inhibition of Human BACE-1
(§1) Recombinant BACE-1 (extracellular domain, expressed in baculovirus and purified using standard methods) at 0.1 to 1 nM concentrations is incubated with the test compound at various concentrations for 1 hour at room temperature in 100 mM acetate buffer, pH 4.5, containing 0.1% CHAPS. Activity was measured using a final concentration of 3 μM of the fluorescence-quenched substrate Q-C(HSO3)-Ile-Asp-Leu-Ala-Val-Leu-Asp-HN—CH2—CH2-Mca, where Q=2-nitro-5-amino benzoic acid and Mca=7-methoxy-4-coumarinyl acetic acid. Catalytic turnover was monitored in a Spectramax Gemini fluorescence plate reader (Molecular Devices) in black 96-well microplates using excitation/emission wavelength of 325 nm and 400 nm, respectively. Fluorescence increase was followed for 15 min, in 1 minute's intervals. The fluorescence/time slopes were calculated from duplicate wells and from wells without inhibitor and the IC50 values were calculated using a logistic 4-parameter model.

The target in the next assay is Human BACE-2 (Homo sapiens (Human), UniProt Q9Y5Z0). Briefly: Test 2: Inhibition of Human BACE-2. It counts as biochemical. Particulars: recombinant BACE-2, pH 4.5, 1 hour preincubation. Here is the method:
Test 2: Inhibition of Human BACE-2
as §1, with “BACE-2” for “BACE-1”

Chain of Human BACE-1 (P56817 46-457): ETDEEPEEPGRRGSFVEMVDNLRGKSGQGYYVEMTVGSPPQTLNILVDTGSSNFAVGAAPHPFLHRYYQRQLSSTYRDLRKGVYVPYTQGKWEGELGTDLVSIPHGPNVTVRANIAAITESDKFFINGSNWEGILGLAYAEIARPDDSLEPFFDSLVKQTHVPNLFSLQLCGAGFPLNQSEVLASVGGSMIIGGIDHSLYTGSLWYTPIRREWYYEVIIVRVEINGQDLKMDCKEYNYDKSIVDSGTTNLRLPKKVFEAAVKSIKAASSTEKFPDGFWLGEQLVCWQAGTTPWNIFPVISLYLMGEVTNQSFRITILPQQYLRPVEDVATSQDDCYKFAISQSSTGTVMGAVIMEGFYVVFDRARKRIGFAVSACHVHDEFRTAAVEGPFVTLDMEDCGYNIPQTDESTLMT
Chain of Human BACE-2 (Q9Y5Z0 63-473): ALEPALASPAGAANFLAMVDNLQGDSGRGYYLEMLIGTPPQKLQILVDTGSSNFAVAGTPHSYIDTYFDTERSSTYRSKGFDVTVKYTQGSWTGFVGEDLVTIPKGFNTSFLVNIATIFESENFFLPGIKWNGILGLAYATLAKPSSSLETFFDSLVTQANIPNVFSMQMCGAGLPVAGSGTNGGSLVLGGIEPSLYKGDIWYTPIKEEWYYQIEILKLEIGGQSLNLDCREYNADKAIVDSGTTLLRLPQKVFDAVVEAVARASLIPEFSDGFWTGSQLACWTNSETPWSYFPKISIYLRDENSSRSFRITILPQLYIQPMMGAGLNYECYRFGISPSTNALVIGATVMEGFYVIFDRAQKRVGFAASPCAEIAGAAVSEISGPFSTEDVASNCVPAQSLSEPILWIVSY

In the case of `C[C@]1(c2nc(NC(=O)c3ncc(OCC(F)F)nc3N)ccc2F)N=C(N)OCC1(F)F` [Example 11, 3-Amino-5-(2,2-difluoro-ethoxy)-pyrazine-2-carboxylic acid [6-((R)-2-amino-5,5-difluoro-4-methyl-5,6-dihydro-4H-[1,3]oxazin-4-yl)-5-fluoro-pyridin-2-yl]-amide], the IC50 was 440 nM in assay [1], 830 nM at Human BACE-1 and 2900 nM at Human BACE-2.

Take `C[C@]1(c2nc(NC(=O)c3ncc(OCCCF)nc3N)ccc2F)N=C(N)OCC1(F)F` [Example 12, 3-Amino-5-(3-fluoro-propoxy)-pyrazine-2-carboxylic acid [6-((R)-2-amino-5,5-difluoro-4-methyl-5,6-dihydro-4H-[1,3]oxazin-4-yl)-5-fluoro-pyridin-2-yl]-amide]: the IC50 in assay [1] is 310 nM; at Human BACE-1, 1200 nM; on Human BACE-2, more than 10000 nM.

In the case of `C[C@]1(c2nc(NC(=O)c3ncc(OCF)nc3N)ccc2F)N=C(N)OCC1(F)F` [Example 15, 3-Amino-5-fluoromethoxy-pyrazine-2-carboxylic acid [6-((R)-2-amino-5,5-difluoro-4-methyl-5,6-dihydro-4H-[1,3]oxazin-4-yl)-5-fluoro-pyridin-2-yl]-amide], the results for the IC50 (in assay [1]; at Human BACE-1; at Human BACE-2) were 30 nM, 110 nM and 730 nM, respectively.

As for `C[C@]1(c2nc(NC(=O)c3ncc(C#CCO)cc3N)ccc2F)N=C(N)OCC1(F)F` [Example 17, 3-Amino-5-(3-hydroxy-prop-1-ynyl)-pyridine-2-carboxylic acid [6-((R)-2-amino-5,5-difluoro-4-methyl-5,6-dihydro-4H-[1,3]oxazin-4-yl)-5-fluoro-pyridin-2-yl]-amide], the IC50 was found to be 62 nM in assay [1], 240 nM on Human BACE-1 and 8200 nM at Human BACE-2.

Regarding `C[C@]1(c2nc(NC(=O)c3ncc(F)cc3N)ccc2F)N=C(N)OCC1(F)F` [Example 18, 3-Amino-5-fluoro-pyridine-2-carboxylic acid [6-((R)-2-amino-5,5-difluoro-4-methyl-5,6-dihydro-4H-[1,3]oxazin-4-yl)-5-fluoro-pyridin-2-yl]-amide], the results for the IC50 (in assay [1]; on Human BACE-1; on Human BACE-2) were 88 nM, 330 nM and 120 nM, respectively.

As to `C[C@]1(c2nc(NC(=O)c3ncc(Cl)cc3N)ccc2F)N=C(N)OCC1(F)F` [Example 19, 3-Amino-5-chloro-pyridine-2-carboxylic acid [6-((R)-2-amino-5,5-difluoro-4-methyl-5,6-dihydro-4H-[1,3]oxazin-4-yl)-5-fluoro-pyridin-2-yl]-amide], the IC50 in assay [1] was determined as 45 nM; at Human BACE-1, 60 nM; at Human BACE-2, 48 nM.

Consider `C[C@]1(c2nc(NC(=O)c3ncccc3Cl)ccc2F)N=C(N)OCC1(F)F` [Example 20, 3-Chloro-pyridine-2-carboxylic acid [6-((R)-2-amino-5,5-difluoro-4-methyl-5,6-dihydro-4H-[1,3]oxazin-4-yl)-5-fluoro-pyridin-2-yl]-amide], for which the half-inhibitory concentration (IC50) in assay [1] came out at 88 nM; on Human BACE-1 it was 360 nM; on Human BACE-2, 95 nM.

With `COCC#Cc1cnc(C(=O)Nc2ccc(F)c([C@@]3(C)N=C(N)OCC3(F)F)n2)c(Cl)c1` [Example 21, 3-Chloro-5-(3-methoxy-prop-1-ynyl)pyridine-2-carboxylic acid [6-((R)-2-amino-5,5-difluoro-4-methyl-5,6-dihydro-4H-[1,3]oxazin-4-yl)-5-fluoro-pyridin-2-yl]-amide], the IC50 in assay [1] was determined as 81 nM; at Human BACE-1 it was 83 nM; on Human BACE-2 it was 840 nM.

Take `C[C@]1(c2nc(NC(=O)c3ncc(C(F)F)nc3N)ccc2F)N=C(N)OCC1(F)F` [Example 22, 3-Amino-5-difluoromethyl-pyrazine-2-carboxylic acid [6-((R)-2-amino-5,5-difluoro-4-methyl-5,6-dihydro-4H-[1,3]oxazin-4-yl)-5-fluoro-pyridin-2-yl]-amide]: the IC50 in assay [1] worked out at 60 nM; at Human BACE-1 it was 190 nM; at Human BACE-2, 580 nM.

Take `C[C@]1(c2nc(NC(=O)c3ncc(OCCCl)nc3N)ccc2F)N=C(N)OCC1(F)F` [Example 23, 3-Amino-5-(2-chloro-ethoxy)-pyrazine-2-carboxylic acid [6-((R)-2-amino-5,5-difluoro-4-methyl-5,6-dihydro-4H-[1,3]oxazin-4-yl)-5-fluoro-pyridin-2-yl]-amide]: the IC50 in assay [1] was 2900 nM; at Human BACE-1, 8700 nM; on Human BACE-2, more than 10000 nM.

Take `C[C@]1(c2nc(NC(=O)c3ncc(OCC(F)F)cc3Cl)ccc2F)N=C(N)OCC1(F)F` [Example 24, 3-Chloro-5-(2,2-difluoro-ethoxy)-pyridine-2-carboxylic acid [6-((R)-2-amino-5,5-difluoro-4-methyl-5,6-dihydro-4H-[1,3]oxazin-4-yl)-5-fluoro-pyridin-2-yl]-amide]: the values for the IC50 (in assay [1]; on Human BACE-1; at Human BACE-2) were 250 nM, 240 nM and 4500 nM, respectively.

With `C[C@]1(c2nc(NC(=O)c3ncc(OCCF)nc3N)ccc2F)N=C(N)OCC1(F)F` [Example 25, 3-Amino-5-(2-fluoro-ethoxy)-pyrazine-2-carboxylic acid [6-((R)-2-amino-5,5-difluoro-4-methyl-5,6-dihydro-4H-[1,3]oxazin-4-yl)-5-fluoro-pyridin-2-yl]-amide], the figures for the IC50 (in assay [1]; at Human BACE-1; at Human BACE-2) were 480 nM, 570 nM and more than 10000 nM, respectively.

On to `C[C@]1(c2nc(NC(=O)c3ncc(OCF)cc3Cl)ccc2F)N=C(N)OCC1(F)F` [Example 26, 3-Chloro-5-fluoromethoxy-pyridine-2-carboxylic acid [6-((R)-2-amino-5,5-difluoro-4-methyl-5,6-dihydro-4H-[1,3]oxazin-4-yl)-5-fluoro-pyridin-2-yl]-amide], for which the IC50 in assay [1] stood at 57 nM; at Human BACE-1, 110 nM; at Human BACE-2, 27 nM.

`CCOc1cnc(C(=O)Nc2ccc(F)c([C@@]3(C)N=C(N)OCC3(F)F)n2)c(Cl)c1` [Example 27, 3-Chloro-5-ethoxy-pyridine-2-carboxylic acid [6-((R)-2-amino-5,5-difluoro-4-methyl-5,6-dihydro-4H-[1,3]oxazin-4-yl)-5-fluoro-pyridin-2-yl]-amide]: the IC50 came to 450 nM in assay [1], 290 nM on Human BACE-1 and 420 nM on Human BACE-2.

With `[2H]C([2H])([2H])C([2H])([2H])Oc1cnc(C(=O)Nc2ccc(F)c([C@@]3(C)N=C(N)OCC3(F)F)n2)c(N)n1` [Example 28, 3-Amino-5-(penta-deutero-ethoxy)-pyrazine-2-carboxylic acid [6-((R)-2-amino-5,5-difluoro-4-methyl-5,6-dihydro-4H-[1,3]oxazin-4-yl)-5-fluoro-pyridin-2-yl]-amide], the IC50 in assay [1] is 840 nM; on Human BACE-1, 1900 nM; on Human BACE-2, 10000 nM.

Turning to `COCCc1cnc(C(=O)Nc2ccc(F)c([C@@]3(C)N=C(N)OCC3(F)F)n2)c(N)n1` [Example 29, 3-Amino-5-(2-methoxy-ethyl)-pyrazine-2-carboxylic acid [6-((R)-2-amino-5,5-difluoro-4-methyl-5,6-dihydro-4H-[1,3]oxazin-4-yl)-5-fluoro-pyridin-2-yl]-amide], the results for the IC50 (in assay [1]; on Human BACE-1; on Human BACE-2) were 70 nM, 150 nM and 5600 nM, respectively.
